Reference: the kinase profiling compilation of Christmann-Franck et al. (2016)

Columns and labels:
Assay in all cases: radiometric filter-binding kinase assay, Kinase HotSpot
Settings in all cases: compound 0.5 µM; ATP 10 µM
[1] = target: AKT1 (human) (UniProt P31749)
[2] = target: AKT3 (human) (UniProt Q9Y243)
[3] = target: CAMK2D (human) (UniProt Q13557)
[4] = target: CDC42BPA (human) (UniProt Q5VT25)
[5] = target: CDK1 CCNB1 (human) (UniProt P06493+P14635)
[6] = target: CDK2 CCNA2 (human) (UniProt P24941+P20248)
[7] = target: CLK4 (human) (UniProt Q9HAZ1)
[8] = target: CSNK1D (human) (UniProt P48730)
[9] = target: DAPK2 (human) (UniProt Q9UIK4)
[10] = target: EPHA3 (human) (UniProt P29320)
[11] = target: EPHA4 (human) (UniProt P54764)
[12] = target: EPHA6 (human) (UniProt Q9UF33)
[13] = target: FGFR1 (human) (UniProt P11362)
[14] = test system: FLT4 (human), P35916 [Q890H]
[15] = target: GSG2 (human) (UniProt Q8TF76)
[16] = target: HIPK1 (human) (UniProt Q86Z02)
[17] = target: IGF1R (human) (UniProt P08069)
[18] = target: INSR (human) (UniProt P06213)
[19] = target: ITK (human) (UniProt Q08881)
[20] = target: JAK1 JH1 catalytic (human) (UniProt P23458)
[21] = target: MAP2K1 (human) (UniProt Q02750)
[22] = target: MAP3K10 (human) (UniProt Q02779)
[23] = target: MAP3K11 (human) (UniProt Q16584)
[24] = target: MAPK11 (human) (UniProt Q15759)
[25] = target: MAPK8 (human) (UniProt P45983)
[26] = target: MAPKAPK2 (human) (UniProt P49137)
[27] = target: MAPKAPK5 (human) (UniProt Q8IW41)
[28] = target: MARK1 (human) (UniProt Q9P0L2)
[29] = target: MINK1 (human) (UniProt Q8N4C8)
[30] = target: NEK9 (human) (UniProt Q8TD19)
[31] = target: PAK1 (human) (UniProt Q13153)
[32] = target: PDPK1 (human) (UniProt O15530)
[33] = target: PHKG1 (human) (UniProt Q16816)
[34] = target: PKN2 (human) (UniProt Q16513)
[35] = target: SRC (human) (UniProt P12931)
[36] = target: STK38 (human) (UniProt Q15208)
[37] = target: TLK2 (human) (UniProt Q86UE8)
[38] = target: TXK (human) (UniProt P42681)
[39] = target: ULK3 (human) (UniProt Q6PHR2)
[40] = target: BRAF (human) (UniProt P15056)
[41] = target: BRSK2 (human) (UniProt Q8IWQ3)
[42] = target: RPS6KA5 KD2 (human) (UniProt O75582)

CDC42BPA (human), sequence (Q5VT25 whole entry, looked up): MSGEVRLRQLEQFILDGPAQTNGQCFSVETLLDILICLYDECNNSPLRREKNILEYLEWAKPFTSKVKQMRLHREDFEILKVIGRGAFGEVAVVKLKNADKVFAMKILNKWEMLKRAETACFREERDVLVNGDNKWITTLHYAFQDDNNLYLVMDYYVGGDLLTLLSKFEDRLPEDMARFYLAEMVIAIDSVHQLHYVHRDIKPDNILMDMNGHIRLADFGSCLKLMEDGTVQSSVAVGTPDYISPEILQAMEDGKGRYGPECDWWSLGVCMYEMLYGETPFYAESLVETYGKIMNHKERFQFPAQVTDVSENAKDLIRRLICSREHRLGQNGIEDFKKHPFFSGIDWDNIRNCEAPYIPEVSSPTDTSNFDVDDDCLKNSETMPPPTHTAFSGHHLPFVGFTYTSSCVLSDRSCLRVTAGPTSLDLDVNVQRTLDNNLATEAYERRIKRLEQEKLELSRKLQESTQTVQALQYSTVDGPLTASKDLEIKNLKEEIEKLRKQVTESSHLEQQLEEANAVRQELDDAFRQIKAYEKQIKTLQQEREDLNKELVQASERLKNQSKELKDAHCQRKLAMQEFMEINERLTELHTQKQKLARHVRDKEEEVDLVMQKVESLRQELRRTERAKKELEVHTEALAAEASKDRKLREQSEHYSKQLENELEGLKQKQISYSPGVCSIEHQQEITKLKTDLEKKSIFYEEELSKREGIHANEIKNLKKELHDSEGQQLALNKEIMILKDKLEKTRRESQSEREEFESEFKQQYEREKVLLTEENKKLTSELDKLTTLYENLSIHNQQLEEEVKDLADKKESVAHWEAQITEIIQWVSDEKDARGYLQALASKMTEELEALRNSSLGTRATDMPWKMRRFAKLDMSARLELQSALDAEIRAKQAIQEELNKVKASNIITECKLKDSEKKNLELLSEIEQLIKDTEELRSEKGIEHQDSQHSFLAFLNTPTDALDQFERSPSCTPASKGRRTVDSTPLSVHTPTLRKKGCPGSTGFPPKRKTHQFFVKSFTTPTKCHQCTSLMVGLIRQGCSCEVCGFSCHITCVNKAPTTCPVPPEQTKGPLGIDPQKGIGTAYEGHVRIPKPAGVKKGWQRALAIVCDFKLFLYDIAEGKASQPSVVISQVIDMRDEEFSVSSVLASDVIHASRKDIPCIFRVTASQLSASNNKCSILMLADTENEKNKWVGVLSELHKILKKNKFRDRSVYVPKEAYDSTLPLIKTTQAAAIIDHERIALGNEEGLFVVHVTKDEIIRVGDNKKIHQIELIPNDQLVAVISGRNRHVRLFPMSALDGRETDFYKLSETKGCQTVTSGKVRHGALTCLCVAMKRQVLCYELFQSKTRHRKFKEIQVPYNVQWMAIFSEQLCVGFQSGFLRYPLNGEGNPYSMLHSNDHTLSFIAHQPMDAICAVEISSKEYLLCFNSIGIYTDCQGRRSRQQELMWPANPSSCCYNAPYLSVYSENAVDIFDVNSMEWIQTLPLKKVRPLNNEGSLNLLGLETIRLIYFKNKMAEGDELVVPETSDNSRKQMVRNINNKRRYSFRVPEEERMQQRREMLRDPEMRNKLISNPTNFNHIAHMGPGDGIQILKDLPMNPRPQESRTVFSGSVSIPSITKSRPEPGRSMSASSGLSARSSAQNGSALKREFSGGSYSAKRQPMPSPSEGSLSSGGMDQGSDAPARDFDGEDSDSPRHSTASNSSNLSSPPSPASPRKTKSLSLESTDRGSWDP
IGF1R (human), sequence (P08069 whole entry, looked up): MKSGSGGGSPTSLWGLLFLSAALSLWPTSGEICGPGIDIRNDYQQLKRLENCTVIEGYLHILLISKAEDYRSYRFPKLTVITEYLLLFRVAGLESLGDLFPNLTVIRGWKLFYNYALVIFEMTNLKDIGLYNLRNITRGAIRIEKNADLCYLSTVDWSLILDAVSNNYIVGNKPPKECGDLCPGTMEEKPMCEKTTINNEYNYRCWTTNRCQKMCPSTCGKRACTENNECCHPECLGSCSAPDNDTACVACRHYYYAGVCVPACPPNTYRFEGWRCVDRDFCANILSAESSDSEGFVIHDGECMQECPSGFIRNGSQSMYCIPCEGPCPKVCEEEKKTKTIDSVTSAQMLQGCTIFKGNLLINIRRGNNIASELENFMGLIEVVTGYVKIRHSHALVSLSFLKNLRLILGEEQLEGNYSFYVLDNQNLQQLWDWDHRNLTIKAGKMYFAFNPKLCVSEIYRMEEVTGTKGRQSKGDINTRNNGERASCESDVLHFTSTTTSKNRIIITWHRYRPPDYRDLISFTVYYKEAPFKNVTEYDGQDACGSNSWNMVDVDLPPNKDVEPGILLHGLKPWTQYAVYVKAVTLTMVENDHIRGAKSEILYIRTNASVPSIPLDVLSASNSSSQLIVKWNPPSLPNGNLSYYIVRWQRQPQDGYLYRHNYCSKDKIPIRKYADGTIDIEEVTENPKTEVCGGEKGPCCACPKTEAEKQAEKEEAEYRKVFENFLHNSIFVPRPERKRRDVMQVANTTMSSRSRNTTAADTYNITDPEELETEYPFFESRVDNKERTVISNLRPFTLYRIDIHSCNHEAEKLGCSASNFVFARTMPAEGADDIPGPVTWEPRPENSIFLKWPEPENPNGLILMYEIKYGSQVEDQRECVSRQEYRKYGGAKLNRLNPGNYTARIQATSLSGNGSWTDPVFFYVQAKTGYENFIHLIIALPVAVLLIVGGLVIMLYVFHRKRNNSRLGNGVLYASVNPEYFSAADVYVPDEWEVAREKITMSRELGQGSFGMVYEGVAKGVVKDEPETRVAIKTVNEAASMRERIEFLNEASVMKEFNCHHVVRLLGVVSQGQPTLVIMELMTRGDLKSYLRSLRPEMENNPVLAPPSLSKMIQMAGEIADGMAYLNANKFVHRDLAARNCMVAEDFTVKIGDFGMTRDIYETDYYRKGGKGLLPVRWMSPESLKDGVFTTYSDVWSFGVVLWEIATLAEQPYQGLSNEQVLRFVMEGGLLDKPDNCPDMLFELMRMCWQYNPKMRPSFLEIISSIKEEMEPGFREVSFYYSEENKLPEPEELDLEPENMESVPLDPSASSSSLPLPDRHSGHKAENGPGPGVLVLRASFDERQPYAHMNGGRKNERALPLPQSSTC
PDPK1 (human), sequence (O15530 whole entry, looked up): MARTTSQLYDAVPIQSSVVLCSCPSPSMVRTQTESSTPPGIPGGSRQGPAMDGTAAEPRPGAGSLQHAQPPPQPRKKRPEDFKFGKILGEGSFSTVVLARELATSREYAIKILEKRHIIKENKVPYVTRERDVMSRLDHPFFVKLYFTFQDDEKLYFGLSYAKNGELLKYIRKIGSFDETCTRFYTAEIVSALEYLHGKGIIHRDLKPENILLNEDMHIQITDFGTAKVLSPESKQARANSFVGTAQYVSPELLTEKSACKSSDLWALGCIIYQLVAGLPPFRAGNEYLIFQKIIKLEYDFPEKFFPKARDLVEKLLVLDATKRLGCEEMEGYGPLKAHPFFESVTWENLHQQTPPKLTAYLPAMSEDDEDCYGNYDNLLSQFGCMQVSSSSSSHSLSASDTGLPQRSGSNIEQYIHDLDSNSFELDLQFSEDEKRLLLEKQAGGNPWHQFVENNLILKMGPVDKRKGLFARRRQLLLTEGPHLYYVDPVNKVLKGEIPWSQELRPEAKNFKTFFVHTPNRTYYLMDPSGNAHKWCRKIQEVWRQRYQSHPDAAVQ
HIPK1 (human), sequence (Q86Z02 whole entry, looked up): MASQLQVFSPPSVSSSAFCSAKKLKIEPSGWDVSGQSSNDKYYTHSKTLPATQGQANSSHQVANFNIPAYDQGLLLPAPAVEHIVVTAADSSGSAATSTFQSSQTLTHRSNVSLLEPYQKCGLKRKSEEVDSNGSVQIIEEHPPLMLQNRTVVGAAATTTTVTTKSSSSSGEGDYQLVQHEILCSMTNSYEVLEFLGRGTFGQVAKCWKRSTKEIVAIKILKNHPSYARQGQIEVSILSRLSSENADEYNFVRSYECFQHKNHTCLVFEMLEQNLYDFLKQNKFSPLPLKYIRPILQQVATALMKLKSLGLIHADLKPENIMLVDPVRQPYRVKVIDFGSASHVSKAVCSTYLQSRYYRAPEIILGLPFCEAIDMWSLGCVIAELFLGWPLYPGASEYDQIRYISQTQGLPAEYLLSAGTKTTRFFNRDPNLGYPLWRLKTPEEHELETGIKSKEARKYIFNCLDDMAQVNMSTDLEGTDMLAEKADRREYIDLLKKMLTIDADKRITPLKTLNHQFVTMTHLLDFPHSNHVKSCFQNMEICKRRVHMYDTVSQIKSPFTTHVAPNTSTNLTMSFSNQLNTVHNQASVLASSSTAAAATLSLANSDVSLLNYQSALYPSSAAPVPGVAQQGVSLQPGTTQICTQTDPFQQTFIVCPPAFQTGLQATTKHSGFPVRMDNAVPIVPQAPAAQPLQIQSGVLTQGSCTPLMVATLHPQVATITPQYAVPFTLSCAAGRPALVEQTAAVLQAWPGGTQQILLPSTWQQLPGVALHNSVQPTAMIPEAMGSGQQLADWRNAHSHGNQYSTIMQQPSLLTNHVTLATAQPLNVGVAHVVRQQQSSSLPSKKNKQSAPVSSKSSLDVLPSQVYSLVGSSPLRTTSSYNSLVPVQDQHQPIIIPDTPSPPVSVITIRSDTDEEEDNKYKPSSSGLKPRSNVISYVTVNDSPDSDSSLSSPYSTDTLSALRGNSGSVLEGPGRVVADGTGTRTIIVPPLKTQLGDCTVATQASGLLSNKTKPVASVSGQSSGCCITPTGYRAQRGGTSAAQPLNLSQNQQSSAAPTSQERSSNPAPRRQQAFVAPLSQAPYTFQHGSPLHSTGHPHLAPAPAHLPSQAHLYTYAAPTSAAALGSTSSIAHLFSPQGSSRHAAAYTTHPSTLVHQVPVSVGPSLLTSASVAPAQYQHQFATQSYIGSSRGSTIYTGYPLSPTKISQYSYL

SMILES	residual activity [1]	residual activity [2]	residual activity [3]	residual activity [4]	residual activity [5]	residual activity [6]	residual activity [7]	residual activity [8]	residual activity [9]	residual activity [10]	residual activity [11]	residual activity [13]	residual activity [14]	residual activity [15]	residual activity [16]	residual activity [17]	residual activity [18]	residual activity [19]	residual activity [20]	residual activity [21]	further results
Fc1ccc(-c2nc3n(c2-c2ccncc2)CCS3)cc1	105%	109%	97.1%	88.7%	91.4%	101%	106%	6.99%	113%	112%	106%	93.4%	112%	104%	108%	106%	91.2%	97.5%	106%	93.6%	residual activity [12]: 94.7%; residual activity [22]: 101%; residual activity [23]: 95.7%; residual activity [24]: 97.2%; residual activity [25]: 99%; residual activity [26]: 101%; residual activity [27]: 97.2%; residual activity [28]: 102%; residual activity [29]: 97.7%; residual activity [30]: 102%; residual activity [31]: 96.1%; residual activity [32]: 109%; residual activity [33]: 94.6%; residual activity [34]: 96.3%; residual activity [35]: 98.2%; residual activity [36]: 88%; residual activity [37]: 94.7%; residual activity [38]: 98.9%; residual activity [39]: 79.2%
Cn1c2ccccc2c2c3c(c4c5ccccc5n(CCC#N)c4c21)CNC3=O	108%	85.3%	20.3%	89.9%	38.7%	20.8%	66.2%	97.5%	84.4%	97.9%	90.4%	63.3%	38.2%	27.2%	81.1%	98.3%	89.3%	4.32%	20.2%	90.2%	residual activity [40]: 110%; residual activity [41]: 26.3%; residual activity [22]: 25.8%; residual activity [23]: 2.19%; residual activity [24]: 99.5%; residual activity [25]: 78.7%; residual activity [26]: 109%; residual activity [27]: 127%; residual activity [28]: 20.8%; residual activity [29]: 2.48%; residual activity [30]: 96.9%; residual activity [31]: 83.3%; residual activity [32]: 63.2%; residual activity [33]: 1.76%; residual activity [34]: 67.7%; residual activity [42]: 23.7%; residual activity [35]: 74.8%; residual activity [38]: 6.39%
O=C1NC(=O)c2c1c1c3ccccc3[nH]c1n1cncc21	102%	94.3%	36.7%	92.7%	85.5%	75.9%	99%	17.2%	43.8%	105%	98.6%	55.2%	56.6%	33.5%	82.6%	76.8%	17.9%	71.4%	102%	102%	residual activity [40]: 101%; residual activity [41]: 29.7%; residual activity [22]: 82.5%; residual activity [23]: 57.5%; residual activity [24]: 94.5%; residual activity [25]: 83.9%; residual activity [26]: 98.9%; residual activity [27]: 123%; residual activity [28]: 36.7%; residual activity [29]: 48.2%; residual activity [30]: 77.4%; residual activity [31]: 93.9%; residual activity [32]: 89%; residual activity [33]: 70.8%; residual activity [34]: 95.5%; residual activity [42]: 87.6%; residual activity [35]: 88.4%; residual activity [38]: 76.4%
